Results from paper PMC11385044 (Chemical Science, 2024).
*1 amine or outer side, *2 acyl side, *3 side chain or, on linkers, in order; H or OH if unused. Where a SMILES comes first, the peptide text is derived from it. Bridges are numbered along the chain shown (N, C = ends). Roman numbers before positions name the chains, in order. The star is where a group is joined. FITC = O=C1OC2(c3ccc(O)cc3Oc3cc(O)ccc32)c2ccc(NC(=S)*)cc21; X1 = O=C(CCc1cn(CC(=O)[*:2])nn1)[*:1]

Biological target: ubiquitin (Ub) (Homo sapiens, UniProt P0CG47)
Experiment: Fluorescence polarization
Format: binding
Details: comparison with native UIM-1 peptide 12

CC[C@H](C)[C@H](NC(=O)[C@H](C)NC(=O)[C@@H](NC(=O)[C@H](CCC(=O)O)NC(=O)[C@@H](NC(=O)[C@H](CCC(=O)O)NC(=O)[C@H](CC(C)C)NC(=O)[C@H](CCC(=O)O)NC(=O)[C@H](CCC(=O)O)NC(=O)[C@@H](NC(=O)[C@H](CCC(=O)O)NC(=O)[C@H](CCC(N)=O)NC(=O)[C@H](CCC(=O)O)NC(=O)CCc1cn(CC(=O)N[C@@H](CCCCN)C(=O)N[C@@H](CCC(N)=O)C(=O)N[C@@H](CCCCN)C(=O)N[C@H](C(=O)N[C@@H](C)C(=O)N[C@@H](C)C(=O)N[C@@H](CC(C)C)C(=O)N[C@@H](CCCCN)C(=O)N[C@@H](CCCCNC(=S)Nc2ccc3c(c2)C(=O)OC32c3ccc(O)cc3Oc3cc(O)ccc32)C(=O)N[C@@H](CCCCN)C(=O)N[C@H](C(=O)N[C@@H](C)C(=O)N[C@@H](C)C(=O)N[C@@H](CC(C)C)C(=O)N[C@@H](CCCCN)C(=O)N[C@@H](CCC(N)=O)C(=O)N[C@@H](CCCCN)C(=O)N[C@H](C(=O)N[C@@H](CCC(N)=O)C(=O)NCC(N)=O)[C@@H](C)CC)[C@@H](C)CC)[C@@H](C)CC)nn1)[C@@H](C)CC)[C@@H](C)CC)[C@@H](C)CC)C(=O)N[C@@H](CC(C)C)C(=O)N[C@@H](CC(C)C)C(=O)N[C@@H](CO)C(=O)N[C@@H](CCC(=O)O)C(=O)N[C@H](C(=O)N[C@@H](CCC(=O)O)C(=O)NCC(N)=O)[C@@H](C)CC [Peptide 10] (I: EQEIEELEIEIAILLSEIEG-NH2 / II: KQKIAALKK(FITC)KIAALKQKIQG-NH2; linker I:N-II:N via X1)
Ub binding relative to native UIM-1 peptide: binds more strongly than the native UIM-1 peptide
